Data on three molecules can be found in paper PMC7005905, “Identification and characterization of a bacterial core methionine synthase” (Scientific Reports, 2020).

Data set [1] concerns the target T1, tr-MetEEco (Escherichia coli, UniProt P25665).
T1 construct: gene metE; tandem-repeat MetE, full length, 753 residues, 85 kDa, recombinant in E. coli DH10B (pBAD30_MetE), anion exchange; source strain of the gene not in main text (K-12 likely)
T1 sequence (P25665 2-753): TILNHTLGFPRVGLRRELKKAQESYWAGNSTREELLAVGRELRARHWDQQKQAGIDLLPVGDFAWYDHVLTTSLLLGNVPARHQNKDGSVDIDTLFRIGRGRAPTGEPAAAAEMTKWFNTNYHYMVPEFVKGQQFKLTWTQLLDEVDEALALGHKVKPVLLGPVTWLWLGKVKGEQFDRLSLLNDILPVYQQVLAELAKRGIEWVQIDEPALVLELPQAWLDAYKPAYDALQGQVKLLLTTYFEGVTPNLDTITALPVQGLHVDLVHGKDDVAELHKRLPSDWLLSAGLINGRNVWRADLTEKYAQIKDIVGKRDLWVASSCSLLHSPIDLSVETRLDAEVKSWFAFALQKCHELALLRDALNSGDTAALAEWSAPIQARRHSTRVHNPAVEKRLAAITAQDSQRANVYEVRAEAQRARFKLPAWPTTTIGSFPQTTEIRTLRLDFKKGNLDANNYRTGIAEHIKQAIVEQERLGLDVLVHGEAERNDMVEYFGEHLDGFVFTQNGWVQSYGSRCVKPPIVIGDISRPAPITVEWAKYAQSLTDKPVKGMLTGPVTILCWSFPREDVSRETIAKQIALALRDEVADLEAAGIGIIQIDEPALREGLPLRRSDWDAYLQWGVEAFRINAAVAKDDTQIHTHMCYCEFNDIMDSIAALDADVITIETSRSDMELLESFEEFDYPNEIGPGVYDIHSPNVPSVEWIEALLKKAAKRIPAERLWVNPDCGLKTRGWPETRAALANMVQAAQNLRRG
The data set is described as follows: HPLC and MS of products. As to conditions: 2 mM D,L-homocysteine, 150 µM 5-methyl-THF-Glu3, pH 7.2, 100 µM MgSO4, 100 µM ZnSO4, 10 mM DTT, 37 °C. It counts as biochemical.

Data set [2] addresses T2, core-MetECBDB (Dehalococcoides mccartyi, UniProt A0A916P3S8).
T2 construct: gene cbdbA481
The settings on record: 2 mM D,L-homocysteine, 50 mM Tris/HCl pH 6.5, 150 mM NaCl, 10% glycerol, anoxic, 0.1 µM enzyme; Hill fit.

Substrate in data set [3]: NC(CCS)C(=O)O
In words: purified protein. The settings on record: 0.5 mM methylcob(III)alamin, 50 mM Tris/HCl pH 6.5, 150 mM NaCl, 10% glycerol, anoxic, 0.1 µM enzyme, racemate, enzyme taken as L-specific, Hill fit.

Consider `NC(CCS)C(=O)O` (racemic) [D,L-homocysteine], for which the “HPLC and MS of products” value in data set [1] is reported as “in the presence of tr-MetEEco, methionine was formed”. As for `C.C/C1=C2/N[C@H]([C@H](CC(N)=O)[C@@]2(C)CCC(=O)NC[C@@H](C)OP(=O)(O)O[C@H]2[C@@H](O)[C@@H](n3cnc4cc(C)c(C)cc43)O[C@@H]2CO)[C@]2(C)N=C(/C(C)=C3N=C(/C=C4N=C1[C@@H](CCC(N)=O)C\4(C)C)[C@@H](CCC(N)=O)[C@]\3(C)CC(N)=O)[C@@H](CCC(N)=O)[C@]2(C)CC(N)=O.[Co]` [MeCbl(III), methylcob(III)alamin], in data set [2], the Km turned out to be 236 ± 3 µM.

B1: core-MetECBDB (Dehalococcoides mccartyi CBDB1) (protein)
chain: MTKTDFYFLPTMIGSMPHTDPKAAVDIITHYLRDIPVWPQLPRRSYLEGMSAQFSQGLPGVNINQDKMWIEPNSGFEGELESLYQAYLDNDFNKFPIGVEYAAGLYELASRSNLSPKLVKGHITGPLTYCMSIKDPSGKDILYDEVLSDAATKLLKLKASWQEHFLKKICRNTIIFVDEPAMSAYGSAYLPLSREQVTGMFEEVFSGISGLKGVHCCGNTDWSILMDTSVDIINFDTYSYADSLAIYTDALQAFIKRGGAVAWGIVPTDEKALKEETAASLKDRLEAAMSHFDSKGLPFAELARHSLITPACGLGLKSLDAAERAPELLAELSALLRRKHGTV
As to B1, in data set [3], the Km was found to be 98 ± 0 µM and the kcat is about 60 s⁻¹.

The term Km denotes the substrate concentration at which the rate is half of its maximum. As usually defined, the kcat is the maximal rate divided by the concentration of active sites.
